Source: EPA's ToxValDB 9.5

Columns and labels:
[1] = acute, duration: 1 days, injection, intraperitoneal, M, Sprague-Dawley, anti-edema effect (reduction in paw edema)
[2] = chronic, duration: 2 years, oral, diet, F, Sprague-Dawley, blood: eosinophils (18 months)
[3] = short-term, duration: 14 days, oral, gavage, M, Crj:CD, red blood cell count
[4] = short-term, duration: 14 days, oral, gavage, M, Crj:CD, white blood cell count
[5] = subchronic, duration: 90 days, oral, diet, M, blood: leukocytes (3 months)
[6] = subchronic, duration: 90 days, oral, diet, M, blood: monocytes (1 month)
[7] = reproduction developmental, oral, gavage, M, C57BL/6, generation: F1, F1: spleen: mean percent splenic CD4+CD25+Foxp3+ T cells
[8] = short-term, duration: 4 weeks, oral, gavage, M, TNF-alpha mRNA levels in liver (normalized to GAPDH)
[9] = short-term, duration: 4 days, dermal, F, BALB/c, body weight + thymus: thymus: absolute weight

Structure (SMILES): O=C([O-])C(F)(F)C(F)(F)C(F)(F)C(F)(F)C(F)(F)C(F)(F)C(F)(F)F.[NH4+] [Ammonium perfluorooctanoate]
- LOEL (Rattus norvegicus; [1]): 50 mg/kg-day
- NOEL (Rattus norvegicus; [1]): 25 mg/kg-day
- NOEL (Rattus norvegicus; acute, duration: 1 days, injection, intraperitoneal, M, Sprague-Dawley, paw thickness (0.5 hr) + paw thickness (1 hr) + paw thickness (time 0)): 150 mg/kg-day
- LOEL (Rattus norvegicus; acute, duration: 1 days, injection, intraperitoneal, M, Sprague-Dawley, paw thickness (3 hrs, […] after PFOA) + paw thickness (4 hrs, 2.5 hrs after PFOA)): 150 mg/kg-day
- LOEL (Rattus norvegicus; acute, duration: 1 days, injection, intraperitoneal, M, Sprague-Dawley, paw thickness ([…]) + paw thickness (2 hr) + paw thickness (3 hr) + paw thickness (4 hr)): 150 mg/kg-day
- NOEL (Rattus norvegicus; acute, duration: 1 days, injection, intraperitoneal, M, Sprague-Dawley, paw thickness ([…], time of PFOA injection) + paw thickness (2 hrs, 0.5 hrs after PFOA)): 150 mg/kg-day
- NOEL (Rattus norvegicus; acute, duration: 1 days, injection, intraperitoneal, M, Sprague-Dawley, paw thickness (edema): 0 hr, after carrageenan + paw thickness (edema): 0 hr, before carrageenan + paw thickness (edema): 0.5 hr + paw …): 100 mg/kg-day
- LOEL (Rattus norvegicus; acute, duration: 1 days, injection, intraperitoneal, M, Sprague-Dawley, paw thickness (edema): […] + paw thickness (edema): 2 hr + paw thickness (edema): 2.5 hr + paw thickness (edema): 3 hr + paw thickness (…): 100 mg/kg-day
- NOEL (Rattus norvegicus; acute, duration: 24 hours, injection, intraperitoneal, M, Fischer 344, blood serum: TNF-alpha levels): 150 mg/kg-day
- NOEL (Rattus norvegicus; chronic, duration: 2 years, oral, diet, F, Sprague-Dawley, blood: eosinophils (12 months) + blood: eosinophils (24 months) + blood: eosinophils (3 months) + blood: eosinophils (6 months) + blood: …): 23.4 mg/kg-day
- LOEL (Rattus norvegicus; [2]): 23.4 mg/kg-day
- NOEL (Rattus norvegicus; [2]): 2.34 mg/kg-day
- LOEL (Rattus norvegicus; chronic, duration: 2 years, oral, diet, F, Sprague-Dawley, blood: lymphocytes (18 months) + blood: neutrophils (18 months) + spleen: spleen: absolute weight (2 years) + spleen: spleen: relative …): 2.34 mg/kg-day
- NOEL (Rattus norvegicus; chronic, duration: 2 years, oral, diet, M, Sprague-Dawley, blood: eosinophils (12 months) + blood: eosinophils (18 months) + blood: eosinophils (24 months) + blood: eosinophils (3 months) + blood: …): 23.4 mg/kg-day
- LOEL (Rattus norvegicus; chronic, duration: 2 years, oral, diet, M, Sprague-Dawley, blood: leukocyte count (12 months) + blood: leukocyte count (3 months) + blood: leukocyte count (6 months) + blood: lymphocytes (18 months…): 2.34 mg/kg-day
- NOEL (Rattus norvegicus; short-term, duration: 14 days, oral, gavage, M, Crj:CD, blood: NKR-P1A+ + CD3+ + CD4+ + CD45RA+ + CD8a+ + lymphocyte + monocyte + NKR-P1A+ + spleen: spleen: absolute weight + spleen: spleen: …): 50 mg/kg-day
- LOEL (Rattus norvegicus; [3]): 50 mg/kg-day
- NOEL (Rattus norvegicus; [3]): 5 mg/kg-day
- LOEL (Rattus norvegicus; [4]): 5 mg/kg-day
- NOEL (Rattus norvegicus; [4]): 0.5 mg/kg-day
- NOEL (Rattus norvegicus; short-term, duration: 24 days, oral, gavage, M, Crl:CD(SD) BR, IgM antibody titer (SRBC) + mean serum corticosterone + spleen: incidence of spleen hematopoiesis + spleen: spleen: absolute weight + spleen…): 30 mg/kg-day
- LOEL (Rattus norvegicus; short-term, duration: 24 days, oral, gavage, M, Crl:CD(SD) BR, thymus: thymus: relative weight): 30 mg/kg-day
- NOEL (Rattus norvegicus; short-term, duration: 28 days, oral, gavage, F, Sprague-Dawley, basophils + eosinophils + lymphocytes + monocytes + neutrophils + spleen: spleen: absolute weight + spleen: spleen: relative weight + thymus…): 30 mg/kg-day
- NOEL (Rattus norvegicus; short-term, duration: 28 days, oral, gavage, F, Sprague-Dawley, basophils + eosinophils + lymphocytes + monocytes + spleen: spleen: absolute weight + spleen: spleen: relative weight + thymus: thymus: …): 30 mg/kg-day
- LOEL (Rattus norvegicus; short-term, duration: 28 days, oral, gavage, F, Sprague-Dawley, neutrophils): 30 mg/kg-day
- NOEL (Rattus norvegicus; short-term, duration: 28 days, oral, gavage, M, Sprague-Dawley, basophils + eosinophils + lymphocytes + monocytes + neutrophils + spleen: spleen: absolute weight + spleen: spleen: relative weight + thymus…): 30 mg/kg-day
- NOEL (Rattus norvegicus; short-term, duration: 28 days, oral, gavage, M, Sprague-Dawley, basophils + eosinophils + lymphocytes + neutrophils + spleen: spleen: absolute weight + spleen: spleen: relative weight + thymus: thymus: …): 30 mg/kg-day
- LOEL (Rattus norvegicus; short-term, duration: 28 days, oral, gavage, M, Sprague-Dawley, monocytes + thymus: thymus: absolute weight): 30 mg/kg-day
- NOEL (Rattus norvegicus; short-term, duration: 29 days, oral, gavage, M, Crl:CD(SD) BR, IgM antibody titer (SRBC) + mean serum corticosterone + spleen: incidence of spleen hematopoiesis + spleen: spleen: relative weight + spleen…): 30 mg/kg-day
- NOEL (Rattus norvegicus; subchronic, duration: 90 days, oral, diet, F, blood: basophils (1 month) + blood: basophils (3 months) + blood: eosinophils (1 month) + blood: eosinophils (3 months) + blood: leukocytes…): 96 mg/kg-day
- NOEL (Rattus norvegicus; subchronic, duration: 90 days, oral, diet, M, blood: basophils (1 month) + blood: basophils (3 months) + blood: eosinophils (1 month) + blood: eosinophils (3 months) + blood: leukocytes…): 96 mg/kg-day
- LOEL (Rattus norvegicus; [5]): 28.8 mg/kg-day
- NOEL (Rattus norvegicus; [5]): 9.6 mg/kg-day
- LOEL (Rattus norvegicus; [6]): 2.88 mg/kg-day
- NOEL (Rattus norvegicus; [6]): 0.96 mg/kg-day
- LOEL (Mus musculus; acute, duration: 1 days, injection, intraperitoneal, serum histamine content): 1 mg/kg-day
- NOEL (Mus musculus; developmental, duration: 9 days, oral, drinking water, F, C57BL/6, generation: F1, F1: IgM antibody titer (SRBC) + F1: spleen: spleen: relative weight + F1: thymus: thymus: relative weight): 6.7 mg/L
- NOEL (Mus musculus; developmental, duration: 16 days, oral, gavage, F, CD1, generation: F1, F1: spleen: spleen: relative weight (ovx)): 5 mg/kg-day
- NOEL (Mus musculus; reproduction developmental, oral, diet, M/F, BALB/c, generation: F1, F1: airway MCh sensitivity + F1: airway resistance (at 25 mg/mL methacholine) + F1: lung: BALF inflammatory cell counts: eosinophils + F1: …): 4 ppm
- LOEL (Mus musculus; reproduction developmental, oral, diet, M/F, BALB/c, generation: F1, F1: airway MCh sensitivity + F1: airway resistance (at 25 mg/mL methacholine) + F1: lung: BALF inflammatory cell counts: macrophages + F1: …): 4 ppm
- NOEL (Mus musculus; reproduction developmental, oral, gavage, F, C57BL/6, generation: F1, F1: mean serum anti-MBP): 2 mg/kg-day
- NOEL (Mus musculus; reproduction developmental, oral, gavage, F, C57BL/6, generation: F1, F1: mean serum anti-dsDNA + F1: spleen: mean percent splenic CD4+CD25+Foxp3+ T cells): 0.2 mg/kg-day
- LOEL (Mus musculus; reproduction developmental, oral, gavage, F, C57BL/6, generation: F1, F1: mean serum anti-ssDNA + F1: spleen (CD4+CD25+): IL-10 levels): 0.02 mg/kg-day
- LOEL (Mus musculus; reproduction developmental, oral, gavage, F, C57BL/6, generation: F1, F1: spleen: mean percent splenic CD4+CD25+Foxp3+ T cells): 2 mg/kg-day
- NOEL (Mus musculus; reproduction developmental, oral, gavage, M, C57BL/6, generation: F1, F1: mean serum anti-dsDNA + F1: mean serum anti-MBP + F1: mean serum anti-ssDNA): 2 mg/kg-day
- LOEL (Mus musculus; reproduction developmental, oral, gavage, M, C57BL/6, generation: F1, F1: spleen (CD4+CD25+): IL-10 levels): 0.02 mg/kg-day
- LOEL (Mus musculus; [7]): 2 mg/kg-day
- NOEL (Mus musculus; [7]): 0.2 mg/kg-day
- NOEL (Mus musculus; short-term, duration: 3 weeks, oral, diet, M, C57BL/6, fold changes of proinflammatory cytokine genes in liver: IL-1b gene (relative to control) + fold changes of proinflammatory cytokine genes …): 5 mg/kg-day
- LOEL (Mus musculus; short-term, duration: 3 weeks, oral, diet, M, C57BL/6, fold changes of proinflammatory cytokine genes in liver: IP-10 gene (relative to control) + fold changes of proinflammatory cytokine genes …): 5 mg/kg-day
- NOEL (Mus musculus; short-term, duration: 3 weeks, oral, gavage, F, BALB/c, IgM antibody level (TNP 1:50)): 20 mg/kg-day
- NOEL (Mus musculus; short-term, duration: 4 weeks, oral, gavage, M, 129S4/SvlmJ, TNF-alpha mRNA levels in liver (normalized to GAPDH)): 21.6 mg/kg-day
- LOEL (Mus musculus; [8]): 10.8 mg/kg-day
- NOEL (Mus musculus; [8]): 5.39 mg/kg-day
- NOEL (Mus musculus; short-term, duration: 2 days, oral, diet, M, C57BL/6, spleen: spleen: absolute weight + thymus: thymus: absolute weight + thymus: total thymic DNA content): 0.02%
- LOEL (Mus musculus; short-term, duration: 2 days, oral, diet, M, C57BL/6, spleen: total splenic DNA content): 0.02%
- NOEL (Mus musculus; short-term, duration: 4 days, dermal, F, BALB/c, OVA-specific IgE): 1.5%
- LOEL (Mus musculus; short-term, duration: 4 days, dermal, F, BALB/c, PCA passive cutaneous anaphylaxis): 10 mg/kg-day
- LOEL (Mus musculus; short-term, duration: 4 days, dermal, F, BALB/c, blood serum: OVA-specific IgE + blood serum: total serum IgE + OVA-specific airway hyperreactivity (AUC) + spleen: spleen B220+ cells + …): 1%
- NOEL (Mus musculus; short-term, duration: 4 days, dermal, F, BALB/c, blood serum: OVA-specific IgE + blood serum: total serum IgE + OVA-specific airway hyperreactivity (AUC) + thymus: thymus cellularity + …): 0.75%
- NOEL (Mus musculus; short-term, duration: 4 days, dermal, F, BALB/c, blood serum: OVA-specific IgE + spleen: spleen B220+ cells + spleen: spleen: absolute weight + thymus: thymus: absolute weight + total serum…): 0.5%
- LOEL (Mus musculus; short-term, duration: 4 days, dermal, F, BALB/c, blood serum: OVA-specific IgE + thymus: thymus: absolute weight + total serum IgE): 0.75%
- LOEL (Mus musculus; [9]): 1.5%
- NOEL (Mus musculus; [9]): 1%
- LOEL (Mus musculus; short-term, duration: 4 days, dermal, F, BALB/c, spleen: spleen cellularity + spleen: spleen: absolute weight): 0.5%
- LOEL (Mus musculus; short-term, duration: 5 days, oral, diet, M, C57BL/6, spleen: spleen: absolute weight + spleen: total splenic DNA content + thymus: thymus: absolute weight + thymus: total thymic DNA content): 0.02%
- LOEL (Mus musculus; short-term, duration: 7 days, oral, diet, M, C57BL/6, blood serum: TNF-alpha levels): 0.02%
- LOEL (Mus musculus; short-term, duration: 7 days, oral, diet, M, C57BL/6, body weight + spleen: lymphocyte proliferation (ConA) + spleen: lymphocyte proliferation (LPS) + spleen: spleen CD19+ cells + spleen: spleen…): 0.02%
- NOEL (Mus musculus; short-term, duration: 7 days, oral, diet, M, C57BL/6, cell cycle of splenocytes: G0/G1 phase + cell cycle of splenocytes: G1/2 phase + cell cycle of splenocytes: G2/M phase): 0.02%
- LOEL (Mus musculus; short-term, duration: 7 days, oral, diet, M, C57BL/6, cell cycle of splenocytes: S phase + cell cycle of thymocytes: G0/G1 phase + cell cycle of thymocytes: G1/2 phase + cell cycle of thymocytes…): 0.02%
- LOEL (Mus musculus; short-term, duration: 7 days, oral, diet, M, C57BL/6, lymphocyte proliferation in response to ConA (1 day culture) + lymphocyte proliferation in response to ConA (2 day culture) + lymphocyte …): 200 mg/kg-day
- NOEL (Mus musculus; short-term, duration: 7 days, oral, diet, M, C57BL/6, spleen: splenocytes in G0/1 phase + splenocytes in G1/2 phase + splenocytes in G2/M phase): 200 mg/kg-day
- LOEL (Mus musculus; short-term, duration: 7 days, oral, diet, M, body weight + spleen: spleen CD19+ cells + spleen: spleen CD3+ cells + spleen: spleen cellularity + thymocyte G0/1 phase + thymocyte G1/2 …): 0.02%
- NOEL (Mus musculus; short-term, duration: 7 days, oral, diet, M, spleen: lymphocyte proliferation (ConA) + spleen: lymphocyte proliferation (LPS)): 0.02%
- LOEL (Mus musculus; short-term, duration: 7 days, oral, gavage, F, BALB/c, Peripheral blood phagocytosis (HEMA) + spleen: lymphocyte proliferation (ConA) + spleen: lymphocyte proliferation (LPS) + Splenic NK cell …): 20 mg/kg-day
- NOEL (Mus musculus; short-term, duration: 7 days, oral, gavage, F, BALB/c, spleen: spleen CD4+ cells + spleen: spleen CD49b+ cells + spleen: spleen CD8+ cells + spleen: spleen cellularity + spleen: spleen: relative …): 20 mg/kg-day
- LOEL (Mus musculus; short-term, duration: 10 days, oral, diet, M, C57BL/6, IgG1 antibody-secreting cells (HRBC) + IgG1 antibody level (HRBC 1:160) + IgG1 antibody level (HRBC 1:20) + IgG1 antibody level (HRBC 1:80…): 0.02%
- NOEL (Mus musculus; short-term, duration: 10 days, oral, diet, M, C57BL/6, IgG3 antibody-secreting cells (HRBC) + IgM antibody-secreting cells (HRBC) + IgM antibody level (HRBC 1:160)): 0.02%
